From patent US20110281852A1 (priority 2010, published 2011)

Columns and labels:
in vitro = conditions: mouse, 3T3-L1 cells during proliferation
Method: Culture medium was removed at 24, 48 and 72 hrs and MTT (0.5 mg/ml in pure DMEM, 50 μl/well) was added.

SREBP-1 = assay: Immunoblotting, SREBP-1 protein in 3T3-L1; type: cell-based, mouse; conditions: 8 days
Method: Immunoblotting: Protein expression of SREBP-1, PPARγ, and C/EBPα relative to […] was assessed by Western Blot. Total proteins were isolated from 3T3-L1 cells treated with compounds or vehicles for 8 days. The cells were washed twice with PBS, lysed in a HEPES-Tx-PI buffer ([…], 5 mM EDTA, 350 mM Sucrose, 1 μg/ml leupeptin, 1 μg/ml pepstatin, 1% Triton-X, 1 mM PMSF), processed with 25G needles and centrifuged at 12,000 rpm for 5 min. Protein concentration was determined using the Micro BCA Protein Assay Kit (Fisher Scientific, Pittsburgh, Pa., USA) following the manufacturers instructions. 25 μg proteins were loaded and separated by electrophoresis using the BioRad Electrophoretic System (65 V for 7 hour). The proteins were then transferred to nitrocellulose membranes at 40 V overnight. The membrane was blocked for 1 hour at room temperature in 5% nonfat milk in Tris-buffered saline (TBS), then washed with Tween-20-TBS (TTBS, 0.1% Tween-20) three times (15 min, 5 min, 5 min), followed by incubation with primary antibodies SREBP-1 (dilution 1:200), PPARγ (dilution 1:200), C/EBPα (dilution 1:200) (all purchased from Santa Cruz Biotechnology, Santa Cruz, Calif., USA) and […] (dilution 1:1000, Sigma-Aldrich, St. Louis, Mo., USA) at room temperature for 2 hours. […]

GATA-2 = assay: Real-Time RT-PCR, GATA-2 mRNA in epididymal fat of FD mice; type: in vivo, mouse
Method: (§1) RNA and protein purification and quantification from epididymal fat tissues: RNA and protein was isolated from 60 mg of epididymal fat tissues with Trizol (Invitrogen, Carlsbad, Calif., USA) following the protocol recommended by the manufacturers. RNA was dissolved in pure water and quantified at 260/280 nm, and sample integrity was checked by 1.5% agarose gel electrophoresis. Protein concentration was determined using the Micro BCA Protein Assay Kit (Fisher Scientific, Pittsburgh, Pa., USA) according to the manufacturer's instructions.
(§2) Quantitative Real-Time RT-PCR: Real-Time reverse transcriptase polymerase chain reaction (RT-PCR) analysis was used to measure mRNA expression of genes PPARγ, C/EBPα, GATA-2 and GATA-3 in the control of β-actin. Total RNA (0.8 μg) from each sample was used for a reverse transcription reaction using the TaqMan Reverse Transcription Reagents (Applied Biosystems, Foster City, Calif., USA) following the manufacturer's instructions. PCR was done using the SYBR green Master Mix (Applied Biosystems, Foster City, Calif., USA) following the manufacturer's instructions. The cycling conditions of amplification were as follows: an initial step of denaturation at 95° C. for 10 min, 40 cycles of denaturation at 95° C. for 30 s, annealing at 55° C. for 30 s, and elongation at 72° C. for 30 s. Real-Time PCR was performed using Mx3000P Real-Time Thermocyclers (Stratagene, La Jolla, Calif., USA). The relative mRNA levels of these genes were calculated by 2-delta delta CT method and normalized with control-treated groups.

GATA-3 = assay: Real-Time RT-PCR, GATA-3 mRNA in epididymal fat of FD mice; type: in vivo, mouse
Method: as §1, §2

C/EBPα = assay: Immunoblot, C/EBPα protein in epididymal fat of FD mice; type: in vivo, mouse; conditions: berberine treatment
Method: as §1
Immunoblot Analysis: Protein expression of GATA-2, GATA-3, PPARγ and C/EBPα in the control of β-actin was assessed by Western Blot. Protein samples from the same group were homogenized as previously reported (Hu and Davies, Phytomedicine (2009) 16:864-873). Protein (25 μg) was separated by polyacrylamide gel electrophoresis using the BioRad Electrophoretic System (60 V for 1 h followed by 90 V for 5 h). The proteins were then transferred to nitrocellulose membranes at 35 V overnight. […]

COc1ccc2cc3[n+](cc2c1OC)CCc1cc2c(cc1-3)OCO2.[Cl-] [berberine, Berberine (Chloride Form)]
cytotoxicity at 1 day, 8 μM (in vitro): 13.2% | cytotoxicity at 2 days, 8 μM (in vitro): 13.8% | cytotoxicity at 3 days, 8 μM (in vitro): 18.6% | decrease of SREBP-1 protein expression vs clozapine treated group (SREBP-1; 8 μM berberine + 15 μM clozapine): 64.6% | decrease of SREBP-1 protein expression vs risperidone treated group (SREBP-1; 8 μM berberine + 50 μM risperidone): 60.4% | GATA-2 mRNA expression increased to (GATA-2; 0.75 mg/kg/day): 2.7 fold | GATA-2 mRNA expression increased to (GATA-2; 1.5 mg/kg/day): 3.4 fold | GATA-2 mRNA expression increased to (GATA-2; 3 mg/kg/day): 3.7 fold | GATA-3 mRNA expression up-regulated by (GATA-3; 0.75 mg/kg/day): 3.2 fold | GATA-3 mRNA expression up-regulated by (GATA-3; 1.5 mg/kg/day): 4.3 fold | GATA-3 mRNA expression up-regulated by (GATA-3; 3 mg/kg/day): 4.8 fold | quantitative protein expression of CEBP-α (C/EBPα): did not appear to be significantly changed
